Molecules are shown by their SMILES.

Chain of human APJ receptor (P35414 whole entry): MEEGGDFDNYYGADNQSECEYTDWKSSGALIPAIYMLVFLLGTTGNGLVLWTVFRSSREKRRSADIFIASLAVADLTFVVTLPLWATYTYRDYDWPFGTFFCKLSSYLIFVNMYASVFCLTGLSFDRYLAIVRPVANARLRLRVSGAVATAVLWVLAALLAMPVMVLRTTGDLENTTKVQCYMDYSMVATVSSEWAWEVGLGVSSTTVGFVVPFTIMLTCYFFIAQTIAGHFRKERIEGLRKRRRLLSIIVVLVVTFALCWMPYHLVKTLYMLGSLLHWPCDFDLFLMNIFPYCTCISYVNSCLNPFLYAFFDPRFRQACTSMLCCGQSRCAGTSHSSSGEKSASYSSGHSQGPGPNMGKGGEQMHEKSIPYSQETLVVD

This experiment has as its target human APJ receptor (Homo sapiens (Human), UniProt P35414). The experiment can be described thus: biochemical. The format is biochemical. The following applies: read-out: Activity hAPJ SPA EC50 IP. The method, boiled down:
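Agonist-stimulated [35S]GTPγS (0.2 nM) binding was read by SPA after 90 min at room temperature. Buffer: 20 mM HEPES pH 7.5 with 5 mM MgCl2, 200 mM NaCl, 3 μM GDP, 0.1% BSA; membranes were from a stable human APJ CHO line. EC50 values are averages of independent runs, fitted by non-linear regression.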
Consider `COc1cccc(OC)c1-n1c(NS(=O)(=O)[C@@H]2C[C@@H](OC)CN(c3ncc(F)cn3)C2)nnc1-c1cccnc1` (stereo in doubt) [Example 816.0, (3S,5S)-N-(4-(2,6-dimethoxyphenyl)-5-(3-pyridinyl)-4H-1,2,4-triazol-3-yl)-1-(5-fluoro-2-pyrimidinyl)-5-methoxy-3-piperidinesulfonamide, (3R,5R)-N-(4-(2,6-dimethoxyphenyl)-5-(3-pyridinyl)-4H-1,2,4-triazol-3-yl)-1-(5-fluoro-2-pyrimidinyl)-5-methoxy-3-piperidinesulfonamide], for which the EC50 was determined as 18 nM.

Turning to `COc1cccc(OC)c1-n1c(NS(=O)(=O)[C@@H]2C[C@H](OC)CN(c3ncc(F)cn3)C2)nnc1-c1cccnc1` (stereo in doubt) [Example 817.0, (3R,5S)-N-(4-(2,6-dimethoxyphenyl)-5-(3-pyridinyl)-4H-1,2,4-triazol-3-yl)-1-(5-fluoro-2-pyrimidinyl)-5-methoxy-3-piperidinesulfonamide, (3S,5R)-N-(4-(2,6-dimethoxyphenyl)-5-(3-pyridinyl)-4H-1,2,4-triazol-3-yl)-1-(5-fluoro-2-pyrimidinyl)-5-methoxy-3-piperidinesulfonamide], the 50% effective concentration (EC50) was 16 nM.

Consider `COc1cccc(OC)c1-n1c(NS(=O)(=O)[C@@H]2C[C@H](OC)CN(c3ncc(F)cn3)C2)nnc1-c1cccnc1` (stereo in doubt) [Example 818.0, (3R,5S)-N-(4-(2,6-dimethoxyphenyl)-5-(3-pyridinyl)-4H-1,2,4-triazol-3-yl)-1-(5-fluoro-2-pyrimidinyl)-5-methoxy-3-piperidinesulfonamide, (3S,5R)-N-(4-(2,6-dimethoxyphenyl)-5-(3-pyridinyl)-4H-1,2,4-triazol-3-yl)-1-(5-fluoro-2-pyrimidinyl)-5-methoxy-3-piperidinesulfonamide], for which the EC50 stood at 110 nM.

In the case of `COc1cccc(OC)c1-n1c(NS(=O)(=O)[C@@H]2C[C@@H](OC)CN(c3ncc(F)cn3)C2)nnc1-c1cccnc1` (stereo in doubt) [Example 819.0, (3S,5S)-N-(4-(2,6-dimethoxyphenyl)-5-(3-pyridinyl)-4H-1,2,4-triazol-3-yl)-1-(5-fluoro-2-pyrimidinyl)-5-methoxy-3-piperidinesulfonamide, (3R,5R)-N-(4-(2,6-dimethoxyphenyl)-5-(3-pyridinyl)-4H-1,2,4-triazol-3-yl)-1-(5-fluoro-2-pyrimidinyl)-5-methoxy-3-piperidinesulfonamide], the EC50 turned out to be 33 nM.

Take `COc1cccc(OC)c1-n1c(NS(=O)(=O)[C@H](C)[C@H](OC(C)C)c2cn3ccccc3n2)nnc1-c1cccnc1` (stereo in doubt) [Example 827.0, (1R,2R)-N-(4-(2,6-dimethoxyphenyl)-5-(3-pyridinyl)-4H-1,2,4-triazol-3-yl)-1-imidazo[1,2-a]pyridin-2-yl-1-(1-methylethoxy)-2-propanesulfonamide, (1S,2S)-N-(4-(2,6-dimethoxyphenyl)-5-(3-pyridinyl)-4H-1,2,4-triazol-3-yl)-1-imidazo[1,2-a]pyridin-2-yl-1-(1-methylethoxy)-2-propanesulfonamide]: the EC50 stood at 10 nM.

For the compound `COc1cccc(OC)c1-n1c(NS(=O)(=O)[C@H](C)[C@H](OC(C)C)c2cn3ccccc3n2)nnc1-c1cccnc1` (stereo in doubt) [Example 828.0, (1R,2R)-N-(4-(2,6-dimethoxyphenyl)-5-(3-pyridinyl)-4H-1,2,4-triazol-3-yl)-1-imidazo[1,2-a]pyridin-2-yl-1-(1-methylethoxy)-2-propanesulfonamide, (1S,2S)-N-(4-(2,6-dimethoxyphenyl)-5-(3-pyridinyl)-4H-1,2,4-triazol-3-yl)-1-imidazo[1,2-a]pyridin-2-yl-1-(1-methylethoxy)-2-propanesulfonamide], the EC50 stood at 480 nM.

In the case of `COc1cccc(-c2nnc(NS(C)(=O)=O)n2-c2c(OC)cccc2OC)n1` [Example 4.02, N-(4-(2,6-dimethoxyphenyl)-5-(6-methoxypyridin-2-yl)-4H-1,2,4-triazol-3-yl)methanesulfonamide], the EC50 was 220 nM.

In the case of `CCS(=O)(=O)Nc1nnc(-c2cccc(OC)n2)n1-c1c(OC)cccc1OC` [Example 29.0, N-(4-(2,6-dimethoxyphenyl)-5-(6-methoxypyridin-2-yl)-4H-1,2,4-triazol-3-yl)ethanesulfonamide], the EC50 was determined as 150 nM.

With `CCS(=O)(=O)Nc1nnc(-c2cccc(C)n2)n1-c1c(OC)cccc1OC` [Example 30.0, N-(4-(2,6-dimethoxyphenyl)-5-(6-methylpyridin-2-yl)-4H-1,2,4-triazol-3-yl)ethanesulfonamide], the EC50 stood at 830 nM.

In the case of `COc1cccc(-c2nnc(NS(=O)(=O)[C@@H](C)[C@H](OC)c3ncc(C)cn3)n2-c2cccnc2)n1` [Example 33.0, (1R,2S)-1-methoxy-N-(5-(6-methoxypyridin-2-yl)-4-(pyridin-3-yl)-4H-1,2,4-triazol-3-yl)-1-(5-methylpyrimidin-2-yl)propane-2-sulfonamide], the EC50 was found to be 56 nM.

Take `COc1cccc(-c2nnc(NS(=O)(=O)[C@@H](C)[C@H](OC)c3ncc(C)cn3)n2-c2ccccc2)n1` [Example 34.0, (1R,2S)-1-methoxy-N-(5-(6-methoxypyridin-2-yl)-4-phenyl-4H-1,2,4-triazol-3-yl)-1-(5-methylpyrimidin-2-yl)propane-2-sulfonamide]: the EC50 was 4.2 nM.

`COc1cccc(-c2nnc(NS(=O)(=O)[C@@H](C)[C@H](OC)c3ncc(C)cn3)n2-c2c(OC)ncnc2OC)n1` [Example 35.0, (1R,2S)-N-(4-(4,6-dimethoxypyrimidin-5-yl)-5-(6-methoxypyridin-2-yl)-4H-1,2,4-triazol-3-yl)-1-methoxy-1-(5-methylpyrimidin-2-yl)propane-2-sulfonamide]: the EC50 is 0.54 nM.

Turning to `COc1cccc(-c2nnc(NS(=O)(=O)[C@@H](C)[C@H](OC)c3ncc(C)cn3)n2-c2cc(C(F)(F)F)cc(C(F)(F)F)c2)n1` [Example 39.0, (1R,2S)-N-(4-(3,5-bis(trifluoromethyl)phenyl)-5-(6-methoxypyridin-2-yl)-4H-1,2,4-triazol-3-yl)-1-methoxy-1-(5-methylpyrimidin-2-yl)propane-2-sulfonamide], the EC50 worked out at 540 nM.

As to `COc1cccc(-c2nnc(NS(=O)(=O)[C@@H](C)[C@H](OC)c3ncc(C)cn3)n2-c2c(OC(F)F)cccc2OC(F)F)n1` [Example 41.0, (1R,2S)-N-(4-(2,6-bis(difluoromethoxy)phenyl)-5-(6-methoxypyridin-2-yl)-4H-1,2,4-triazol-3-yl)-1-methoxy-1-(5-methylpyrimidin-2-yl)propane-2-sulfonamide], the EC50 turned out to be 0.22 nM.

Turning to `COc1cccc(-c2nnc(NS(=O)(=O)[C@@H](C)[C@H](OC)c3ncc(C)cn3)n2-c2ccncc2)n1` [Example 42.0, (1R,2S)-1-methoxy-N-(5-(6-methoxypyridin-2-yl)-4-(pyridin-4-yl)-4H-1,2,4-triazol-3-yl)-1-(5-methylpyrimidin-2-yl)propane-2-sulfonamide], the EC50 was found to be 51 nM.

As to `COc1cccc(-c2nnc(NS(=O)(=O)[C@@H](C)[C@H](OC)c3ncc(C)cn3)n2-c2ccc(Cl)cc2)n1` [Example 45.0, (1R,2S)-N-(4-(4-chlorophenyl)-5-(6-methoxy-2-pyridinyl)-4H-1,2,4-triazol-3-yl)-1-methoxy-1-(5-methyl-2-pyrimidinyl)-2-propanesulfonamide], the EC50 worked out at 96 nM.

`COc1ccc(-n2c(NS(=O)(=O)[C@@H](C)[C@H](OC)c3ncc(C)cn3)nnc2-c2cccc(OC)n2)cc1` [Example 46.0, (1R,2S)-1-methoxy-N-(4-(4-methoxyphenyl)-5-(6-methoxy-2-pyridinyl)-4H-1,2,4-triazol-3-yl)-1-(5-methyl-2-pyrimidinyl)-2-propanesulfonamide]: the EC50 was 75 nM.

On to `COc1cccc(-c2nnc(NS(=O)(=O)[C@@H](C)[C@H](OC)c3ncc(C)cn3)n2-c2cccc(F)c2)n1` [Example 47.0, (1R,2S)-N-(4-(3-fluorophenyl)-5-(6-methoxy-2-pyridinyl)-4H-1,2,4-triazol-3-yl)-1-methoxy-1-(5-methyl-2-pyrimidinyl)-2-propanesulfonamide], for which the EC50 turned out to be 8.8 nM.

Regarding `CCO[C@H](c1ncc(F)cn1)[C@H](C)S(=O)(=O)Nc1nnc(-c2cccc(OC)n2)n1-c1c(OC)cccc1OC` [Example 48.0, (1R,2S)-N-(4-(2,6-dimethoxyphenyl)-5-(6-methoxy-2-pyridinyl)-4H-1,2,4-triazol-3-yl)-1-ethoxy-1-(5-fluoro-2-pyrimidinyl)-2-propanesulfonamide], the EC50 was found to be 0.18 nM.

With `COc1cnc([C@@H](OC)[C@H](C)S(=O)(=O)Nc2nnc(-c3cccc(OC)n3)n2-c2c(OC)cccc2OC)nc1` [Example 49.0, (1R,2S)-N-(4-(2,6-dimethoxyphenyl)-5-(6-methoxy-2-pyridinyl)-4H-1,2,4-triazol-3-yl)-1-methoxy-1-(5-methoxy-2-pyrimidinyl)-2-propanesulfonamide], the 50% effective concentration (EC50) was 0.17 nM.

Regarding `CCO[C@H](c1ncc(F)cn1)[C@H](C)S(=O)(=O)Nc1nnc(-c2cccc(OC)n2)n1-c1ccccc1` [Example 50.0, (1R,2S)-1-ethoxy-1-(5-fluoro-2-pyrimidinyl)-N-(5-(6-methoxy-2-pyridinyl)-4-phenyl-4H-1,2,4-triazol-3-yl)-2-propanesulfonamide], the EC50 worked out at 9.3 nM.

For the compound `CCO[C@H](c1ncc(F)cn1)[C@H](C)S(=O)(=O)Nc1nnc(-c2cccnc2)n1-c1c(OC)cccc1OC` [Example 51.0, (1R,2S)-N-(4-(2,6-dimethoxyphenyl)-5-(3-pyridinyl)-4H-1,2,4-triazol-3-yl)-1-ethoxy-1-(5-fluoro-2-pyrimidinyl)-2-propanesulfonamide], the concentration for a half-maximal effect (EC50) came to 0.71 nM.

For `COc1cccc(-c2nnc(NS(=O)(=O)[C@@H](C)[C@H](OC)c3ncc(C)cn3)n2-c2ccc3ccccc3c2)n1` [Example 53.0, (1R,2S)-1-methoxy-N-(5-(6-methoxy-2-pyridinyl)-4-(2-naphthalenyl)-4H-1,2,4-triazol-3-yl)-1-(5-methyl-2-pyrimidinyl)-2-propanesulfonamide], the EC50 came to 53 nM.

For the origin of these results see patent US10058550B2, “Methods of treating heart failure” (priority 2015, dated 2018).
